Laboratory results from patent US20260318831A1 (University of Cincinnati, priority 2023, published 2026).

Experiments:
[1] = tested on: HeLa cells; experiment: CCK-8 cell viability and cytotoxicity assay; type: cell-based; settings: within 24 h incubation, 0~10 μM
Protocol: (§1) In some aspects, the probes of the present disclosure can be administered to living cells, either in vitro or in vivo. To take advantage of the absorption and emission spectra of PyQPMe, this probe was administered in high-resolution microscopy for living cells. The toxicity of PyQPMe was examined at first before characterizing its imaging properties. Cell Counting Kit-8 (CCK-8) was used to investigate the viability of HeLa cells stained with PyQPMe. […] Next, PyQPMe was characterized by Leica Stellaris Confocal Microscope in the LIGHTNING module for high-resolution imaging. […] The signal tended to be endolysosomes because endolysosomes have a low pH range from 4.7 to 6.3. […] Since low temperatures can inhibit endocytosis, experiments at a lower temperature were performed.
Cell viability and cytotoxicity assay. […] The viability was determined by adding 10 μL reagent from a cell counting kit-8 (CCK-8) (Dojindo Molecular Technologies, Inc.) and incubating at 37° C. for 1 h. CCK-8 solution was added to each well and the OD value for each well was read at wavelength 490 nm on a microplate reader (BioTek Instruments, Inc., USA). The interference of absorbance from PyQPMe at 490 nm was minimal compared to the CCK-8 reagent during measurement.

[2] = Effect of potential biochemical species on fluorescence intensity; type: physicochemical; settings: pH 3.0 or 8.2; cations, anions, H2O2, Cys, Hcy, GSH
Text: (§2) Next, the effect of potential biochemical species on the fluorescence intensity of PyQPMe in both pH 3.0 and 8.2 buffer solutions was investigated. […] Fluorescence spectra of PyQPMe in various solvents with different polarities were also obtained. […] Furthermore, the photostability of PyQPMe was investigated under different pH conditions. […] Taken together, the above photophysical results identify that PyQPMe is a pH-sensitive probe, well suited for studying endolysosome dynamics via high-resolution imaging techniques.

[3] = tested on: HeLa cells; experiment: Photobleaching comparison of LTR and PyQPMe; type: cell-based; settings: 100% laser power, after 40 s of scans; % of original value
Text: FIGS. 4A-4G depict the characterization of imaging properties of PyQPMe-stained endolysosomes. FIG. 4A. Confocal image of PyQPMe-stained endolysosomes and fluorescence intensity profile (FIG. 4B) of the write line in FIG. 4A. FIG. 4C. Confocal image of PyQPMe-stained late endosomes/lysosomes and fluorescence intensity profile (FIG. 4D) of the write line in FIG. 4C. FIG. 4E. Confocal images of HeLa cells labeled with LTR and PyQPMe and 3D fluorescence intensity plots of rectangles of integration. FIG. 4F. Continuous imaging of HeLa cells labeled with LTR or PyQPMe at 100% laser intensity for photobleaching, and each scan time was 10 s, images were captured under a red channel. FIG. 4G. Normalized fluorescence intensity of LTR and PyQPMe in FIG. 4F.
Resistance to photobleaching is a crucial property of probes that determines whether they can be used for long-term fluorescence tracking. To characterize this property, a photobleaching comparison study between LTR and PyQPMe was done in HeLa cells (FIG. 4F).
Leica Stellaris 8 Confocal imaging. High-resolution images were acquired on a commercial Leica Stellaris 8 Confocal Microscope under LIGHTNING mode. Laser powers were set at 10% intensity for 405 nm and 640 nm channels. […] High-resolution images were captured from the randomly selected field of view and analyzed with Leica LAS X and ImageJ software. […] All PCC values were analyzed in the CellProfiler.

[4] = Photostability under irradiation in neutral and acidic solutions; type: physicochemical; settings: 300 s irradiation
Text: as §2

[5] = tested on: HeLa cells; experiment: Confocal imaging of PyQPMe uptake by endocytosis; type: cell-based
Protocol: as §1
(§3) Leica Stellaris 8 Confocal imaging. High-resolution images were acquired on a commercial Leica Stellaris 8 Confocal Microscope under LIGHTNING mode. Laser powers were set at 10% intensity for 405 nm and 640 nm channels. The objective was 63×/1.4. High-resolution images were captured from the randomly selected field of view and analyzed with Leica LAS X and ImageJ software. All the images were exported on the Auto scale of the Leica LAS X software. Cells were seeded on glassed-bottomed cell dishes (MatTek) for 24 hours. Cells stained with PyQPMe (20 nM, 10 min) were treated with Wortmannin (1 μM, 24 h), CCCP ([…], 24 h), rapamycin (0.5 μM, 24 h), chloroquine (25 μM, 30 min), and NH4Cl (50 mM, 30 min). All PCC values were analyzed in the CellProfiler.

[6] = tested on: endolysosomes in HeLa cells; experiment: Dynamics of PyQPMe-stained endolysosomes (puncta counting); type: cell-based
Protocol: FIGS. 5A-5H depict the characterization of dynamics of PyQPMe-stained endolysosomes. FIG. 5A. Confocal images of HeLa cells stained with PyQPMe following treatment with or without Wortmannin for 24 h. FIG. 5B. Schematic illustration of the effect of Wortmannin which inhibits the conversion from early endosomes into late endosomes. FIG. 5C. Quantification of total endolysosomes and late endosomes/lysosomes in PyQPMe-stained HeLa cells with or without Wortmannin treatment. FIG. 5D. The ratio of the number of late endosomes/lysosomes to total endolysosomes in PyQPMe-stained HeLa cells treated with or without Wortmannin. FIG. 5E. Confocal images of HeLa cells stained with PyQPMe for 10 min and 60 min. FIG. 5F. The mean red puncta fluorescence intensity of PyQPMe-stained HeLa cells for 10 min and 60 min incubation. FIG. 5G. Quantification of total endolysosomes and late endosomes/lysosomes in PyQPMe-stained HeLa cells for 10 min and 60 min. FIG. 5H. The ratio of the number of late endosomes/lysosomes to total endolysosomes in PyQPMe-stained HeLa cells for 10 min and 60 min. Data are given as M±SEM (n=10 independent samples from 10 cells for each statistical analysis); the statistical differences were analyzed by Student's t-test, p<0.05 is considered to statistical significant (** p≤0.01; *** p≤0.001; **** p≤0.0001; ns p>0.05).
Because of the popularity of quantitative cell biology, it is important to design powerful tools that can digitize individual cells and subcellular organelles to elucidate biological problems in detail. With its great pH response, long-term photostability, and excellent signal-to-noise ratio for high-resolution imaging, PyQPMe was successfully used to track the dynamics of endolysosomes within cells by counting the number of puncta fluorescence signals in both green and red channels (FIG. 5A).
Next, the effects of different incubation time on the endocytic pathway were tested.
as §3

In the case of `CN1CCN(c2ccc(/C=C/c3ccc4cc(-c5ccncc5)ccc4[n+]3C)cc2)CC1` [PyQPMe, (E)-1-methyl-2-(4-(4-methylpiperazin-1-yl)styryl)-6-(pyridin-4-yl)quinolin-1-ium], the “effect on viability of HeLa cells” value [1] is reported as “no effects on the viability of HeLa cells”, the “effect of interfering substances on emission intensity” value [2] is reported as “none of these interfering substances could quench the emission intensity” and the “fluorescence signal remaining after photobleaching” value [3] is reported as 22%. For the same molecule, the “photostability: change of fluorescence intensity” value [4] was “negligible change”, the “fluorescence signal inside HeLa cells at high concentration” value ([5]; 2 μM PyQPMe) was “same fluorescence signal inside HeLa cells could be observed” and the “endolysosomes detected at low temperature” value ([5]; 4° C. vs 37° C.) was “Fewer endolysosomes were detected”. The “fluorescence in HeLa cells” value ([5]; 405 nm excitation, 10 min incubation) was “punctate fluorescence signals in the cytoplasm”, the “intensity of puncta fluorescence in red channel” value ([6]; 60 min vs 10 min incubation) was “increased during 60 min incubation” and the “number of total endolysosomes and late endosomes/lysosomes detected” value ([6]; 60 min vs 10 min incubation) was “more PyQPMe-stained total endolysosomes and late endosomes/lysosomes were simultaneously detected”. For the same molecule, the “percentage of late endosomes/lysosomes in total endolysosomes” value ([6]; regardless of incubation time (10 min, 60 min)) was “remained stable”.
